Results as given in patent US12528826B2, “[1,4]oxazepino[2,3-c]quinolinone derivatives as BCL6 inhibitors” (Cancer Research Technology Limited, priority 2019, dated 2026).

target: T1, Trx-6×His-BCL6 (human BCL6 BTB domain covering amino-acid sequence 5-129) (Homo sapiens, UniProt P41182); experiment: HTRF assay (BCL6 / BCOR peptide); type: binding; settings: 1 nM Trx-6×His-BCL6, 300 nM BCOR-AF633 peptide, 2 hours incubation at room temperature
T1 construct: made in house
Procedure: After 2 hours incubation at room temperature the plate was read on a Pherastar FSX (BMG Labtech) plate reader equipped with 337 nm laser excitation filter, a first emission filter at 620 nm and a second emission filter at 665 nm. The % inhibition at each concentration was calculated by normalising FRET ratio to the appropriate high (DMSO with all reagents) and low (DMSO without BCL6) controls.

| HTRF avg pIC50 | Compound |
| --- | --- |
| 7.86 | Cn1c(=O)c2c(c3cc(Nc4ccnc(Cl)c4Cl)ccc31)N[C@@H](C1CC1)C(F)(F)CO2 [Example 4c, (S)-2-cyclopropyl-10-((2,3-dichloropyridin-4-yl)amino)-3,3-difluoro-7-methyl-1,2,3,4-tetrahydro-[1,4]oxazepino[2,3-c]quinolin-6(7H)-one] |
| 7.78 | Cn1c(=O)c2c(c3cc(Nc4ccnc(Cl)c4F)ccc31)N[C@@H](C1CC1)C(F)(F)CO2 [Example 4d, (S)-10-((2-chloro-3-fluoropyridin-4-yl)amino)-2-cyclopropyl-3,3-difluoro-7-methyl-1,2,3,4-tetrahydro-[1,4]oxazepino[2,3-c]quinolin-6(7H)-one] |
| 7.73 | Cc1nccc(Nc2ccc3c(c2)c2c(c(=O)n3C)OCC(F)(F)[C@H](C3CC3)N2)c1Cl [Example 4e, (S)-10-((3-chloro-2-methylpyridin-4-yl)amino)-2-cyclopropyl-3,3-difluoro-7-methyl-1,2,3,4-tetrahydro-[1,4]oxazepino[2,3-c]quinolin-6(7H)-one] |
| 8.60 | Cn1c(=O)c2c(c3cc(Nc4nc(N5C[C@@H](O)C[C@@H](F)C5)ncc4Cl)ccc31)N[C@@H](C1CC1)C(F)(F)CO2 [Example 9a, (S)-10-((5-chloro-2-((3S,5R)-3-fluoro-5-hydroxypiperidin-1-yl)pyrimidin-4-yl)amino)-2-cyclopropyl-3,3-difluoro-7-methyl-1,2,3,4-tetrahydro-[1,4]oxazepino[2,3-c]quinolin-6(7H)-one: (S)-10-((5-chloro-2-((3R,5S)-3-fluoro-5-hydroxypiperidin-1-yl)pyrimidin-4-yl)amino)-2-cyclopropyl-3,3-difluoro-7-methyl-1,2,3,4-tetrahydro-[1,4]oxazepino[2,3-c]quinolin-6(7H)-one (1:1)] |

same assay, conditions: 1 nM Trx-6×His-BCL6, 300 nM BCOR-AF633 peptide, 2 hours incubation at room temperature; read-out: HTRF avg pIC50 (converted)

| Compound | IC50 [nM] |
| --- | --- |
| Cn1c(=O)c2c(c3cc(Nc4nc(N5CCC(F)(F)CC5)ncc4F)ccc31)N[C@@H](C1CC1)C(F)(F)CO2 [Example 2b, (S)-2-cyclopropyl-10-((2-(4,4-difluoropiperidin-1-yl)-5-fluoropyrimidin-4-yl)amino)-3,3-difluoro-7-methyl-1,2,3,4-tetrahydro-[1,4]oxazepino[2,3-c]quinolin-6(7H)-one] | 22.4 |
| [2H]C([2H])([2H])n1c(=O)c2c(c3cc(Nc4nc(N5C6CCC5COC6)ncc4Cl)cnc31)N[C@@H](C1CC1)C(F)(F)CO2 [Example 3a, (S)-10-((2-(3-oxa-8-azabicyclo[3.2.1]octan-8-yl)-5-chloropyrimidin-4-yl)amino)-2-cyclopropyl-3,3-difluoro-7-(methyl-d3)-1,2,3,4-tetrahydro-[1,4]oxazepino[2,3-c][1,8]naphthyridin-6(7H)-one] | 1.62 |
| Cc1noc(-c2cc(Nc3ccc4c(c3)c3c(c(=O)n4C)OCC(F)(F)[C@H](C4CC4)N3)c(Cl)cn2)n1 [Example 4a, (S)-10-((5-chloro-2-(3-methyl-1,2,4-oxadiazol-5-yl)pyridin-4-yl)amino)-2-cyclopropyl-3,3-difluoro-7-methyl-1,2,3,4-tetrahydro-[1,4]oxazepino[2,3-c]quinolin-6(7H)-one] | 3.47 |
| Cn1c(=O)c2c(c3cc(Nc4nc(N5[C@@H]6COC[C@H]5C[C@@H](O)C6)ncc4F)ccc31)N[C@@H](C1CC1)C(F)(F)CO2 [Example 5a, (S)-2-cyclopropyl-3,3-difluoro-10-((5-fluoro-2-((1R,5S,7R)-7-hydroxy-3-oxa-9-azabicyclo[3.3.1]nonan-9-yl)pyrimidin-4-yl)amino)-7-methyl-1,2,3,4-tetrahydro-[1,4]oxazepino[2,3-c]quinolin-6(7H)-one] | 1.51 |
| Cn1c(=O)c2c(c3cc(Nc4ncncc4Cl)ccc31)N[C@@H](C1CC1)C(F)(F)CO2 [Example 6a, (S)-10-((5-chloropyrimidin-4-yl)amino)-2-cyclopropyl-3,3-difluoro-7-methyl-1,2,3,4-tetrahydro-[1,4]oxazepino[2,3-c]quinolin-6(7H)-one] | 14.1 |
| CN(C)c1ncc(Cl)c(Nc2ccc3c(c2)c2c(c(=O)n3C)OCC(F)(F)[C@H](C3CC3)N2)n1 [Example 8a, (S)-10-((5-chloro-2-(dimethylamino)pyrimidin-4-yl)amino)-2-cyclopropyl-3,3-difluoro-7-methyl-1,2,3,4-tetrahydro-[1,4]oxazepino[2,3-c]quinolin-6(7H)-one] | 10.7 |
| Cn1c(=O)c2c(c3cc(Nc4nc(N5C[C@H](O)C[C@H](F)C5)ncc4Cl)ccc31)N[C@@H](C1CC1)C(F)(F)CO2 [Example 9a-1, (S)-10-((5-chloro-2-((3S,5R)-3-fluoro-5-hydroxypiperidin-1-yl)pyrimidin-4-yl)amino)-2-cyclopropyl-3,3-difluoro-7-methyl-1,2,3,4-tetrahydro-[1,4]oxazepino[2,3-c]quinolin-6(7H)-one] | 1.82 |
| Cn1c(=O)c2c(c3cc(Nc4nc(N5C[C@@H](O)C[C@@H](F)C5)ncc4Cl)ccc31)N[C@@H](C1CC1)C(F)(F)CO2 [Example 9a-2, (S)-10-((5-chloro-2-((3R,5S)-3-fluoro-5-hydroxypiperidin-1-yl)pyrimidin-4-yl)amino)-2-cyclopropyl-3,3-difluoro-7-methyl-1,2,3,4-tetrahydro-[1,4]oxazepino[2,3-c]quinolin-6(7H)-one] | 2.95 |

Next, values leading:

| IC50 [nM] | Compound |
| --- | --- |
| 3.09 | CN(C)C[C@@H]1CCCN(c2ncc(Cl)c(Nc3ccc4c(c3)c3c(c(=O)n4C)OCC(F)(F)[C@H](C4CC4)N3)n2)C1 [Example 9b, (S)-10-((5-chloro-2-((S)-3-((dimethylamino)methyl)piperidin-1-yl)pyrimidin-4-yl)amino)-2-cyclopropyl-3,3-difluoro-7-methyl-1,2,3,4-tetrahydro-[1,4]oxazepino[2,3-c]quinolin-6(7H)-one] |
| 3.39 | CN(C)[C@H]1CCCN(c2ncc(Cl)c(Nc3ccc4c(c3)c3c(c(=O)n4C)OCC(F)(F)[C@H](C4CC4)N3)n2)C1 [Example 9h, (S)-10-((5-chloro-2-((S)-3-(dimethylamino)piperidin-1-yl)pyrimidin-4-yl)amino)-2-cyclopropyl-3,3-difluoro-7-methyl-1,2,3,4-tetrahydro-[1,4]oxazepino[2,3-c]quinolin-6(7H)-one] |
| 2.69 | CN(C)[C@@H]1CCCN(c2ncc(Cl)c(Nc3ccc4c(c3)c3c(c(=O)n4C)OCC(F)(F)[C@H](C4CC4)N3)n2)C1 [Example 9i, (S)-10-((5-chloro-2-((R)-3-(dimethylamino)piperidin-1-yl)pyrimidin-4-yl)amino)-2-cyclopropyl-3,3-difluoro-7-methyl-1,2,3,4-tetrahydro-[1,4]oxazepino[2,3-c]quinolin-6(7H)-one] |
| 2.51 | CC(=O)N(C)[C@@H]1CN(c2ncc(Cl)c(Nc3ccc4c(c3)c3c(c(=O)n4C)OCC(F)(F)[C@H](C4CC4)N3)n2)CCC1(F)F [Example 9m, N-((R)-1-(5-chloro-4-(((S)-2-cyclopropyl-3,3-difluoro-7-methyl-6-oxo-1,2,3,4,6,7-hexahydro-[1,4]oxazepino[2,3-c]quinolin-10-yl)amino)pyrimidin-2-yl)-4,4-difluoropiperidin-3-yl)-N-methylacetamide] |
| 4.9 | CC(=O)N(C)[C@H]1CN(c2ncc(Cl)c(Nc3ccc4c(c3)c3c(c(=O)n4C)OCC(F)(F)[C@H](C4CC4)N3)n2)CCC1(F)F [Example 9n, N-((S)-1-(5-chloro-4-(((S)-2-cyclopropyl-3,3-difluoro-7-methyl-6-oxo-1,2,3,4,6,7-hexahydro-[1,4]oxazepino[2,3-c]quinolin-10-yl)amino)pyrimidin-2-yl)-4,4-difluoropiperidin-3-yl)-N-methylacetamide] |
| 9.33 | Cn1c(=O)c2c(c3cc(Nc4nc(N5CCC(F)(CO)CC5)ncc4Cl)ccc31)N[C@@H](C1CC1)C(F)(F)CO2 [Example 9o, (S)-10-((5-chloro-2-(4-fluoro-4-(hydroxymethyl)piperidin-1-yl)pyrimidin-4-yl)amino)-2-cyclopropyl-3,3-difluoro-7-methyl-1,2,3,4-tetrahydro-[1,4]oxazepino[2,3-c]quinolin-6(7H)-one] |
| 2.88 | Cn1c(=O)c2c(c3cc(Nc4nc(N5CCC[C@@H](CO)C5)ncc4Cl)ccc31)N[C@@H](C1CC1)C(F)(F)CO2 [Example 9p, (S)-10-((5-chloro-2-((R)-3-(hydroxymethyl)piperidin-1-yl)pyrimidin-4-yl)amino)-2-cyclopropyl-3,3-difluoro-7-methyl-1,2,3,4-tetrahydro-[1,4]oxazepino[2,3-c]quinolin-6(7H)-one] |
| 4.27 | Cn1c(=O)c2c(c3cc(Nc4nc(N5CCC[C@H](CO)C5)ncc4Cl)ccc31)N[C@@H](C1CC1)C(F)(F)CO2 [Example 9q, (S)-10-((5-chloro-2-((S)-3-(hydroxymethyl)piperidin-1-yl)pyrimidin-4-yl)amino)-2-cyclopropyl-3,3-difluoro-7-methyl-1,2,3,4-tetrahydro-[1,4]oxazepino[2,3-c]quinolin-6(7H)-one] |
| 19.5 | Cn1c(=O)c2c(c3cc(Nc4nc(N5C[C@H](F)C[C@H](F)C5)ncc4Cl)ccc31)N[C@@H](C1CC1)C(F)(F)CO2 [Example 9s, (S)-10-((5-chloro-2-((3S,5R)-3,5-difluoropiperidin-1-yl)pyrimidin-4-yl)amino)-2-cyclopropyl-3,3-difluoro-7-methyl-1,2,3,4-tetrahydro-[1,4]oxazepino[2,3-c]quinolin-6(7H)-one] |
| 4.17 | CN(CC(C)(C)O)c1ncc(Cl)c(Nc2ccc3c(c2)c2c(c(=O)n3C)OCC(F)(F)[C@H](C3CC3)N2)n1 [Example 9u, (S)-10-((5-chloro-2-((2-hydroxy-2-methylpropyl)(methyl)amino)pyrimidin-4-yl)amino)-2-cyclopropyl-3,3-difluoro-7-methyl-1,2,3,4-tetrahydro-[1,4]oxazepino[2,3-c]quinolin-6(7H)-one] |
